Experiments:
Assay type in all cases: cell-based
[1] = molecular target: T1, Ba/F3 BCR-ABL1 E255V/T315I (Homo sapiens, UniProt P00519+P11274, E255V/T315I); test: Cell growth inhibitory activity assay (CellTiter-Glo), Ba/F3 BCR-ABL1 E255V/T315I cells; details: 72 h, CTG cell viability
T1 construct: BCR (N-terminal fusion partner of the oncoprotein); expressed in transfected cells; host or cells: Ba/F3 (lentiviral transduction, monoclonal line)
Description: (§1) In this assay, the Celltiter-Glo (CTG) kit provided by Promega was used, and it is a homogeneous cell viability assay method. The cell viability of cultured cells was measured by quantifying ATP. K562 cells were purchased from Nanjing Kebai, product number CBP60529; Ba/F3 parental cells were purchased from RIKEN BRC, product number RCB0805; other cells containing BCR-ABL1 WT, BCR-ABL1 T315I, BCR-ABL1 T315M, BCR-ABL1 Y253H/E255K, BCR-ABL1 E255V/T3151, BCR-ABL1 A424T, BCR-ABL1 A337V, BCR-ABL1 P465S, BCR-ABL1 V468F, and BCR-ABL1 I502L were all monoclonal engineered cell lines obtained by transducting Ba/F3 parental cells with the lentivirus plasmids containing WT or corresponding mutated BCR-ABL1.
(§2) The steps of cell viability assay are as follows: • a) Cells in logarithmic growth phase were collected. Cell suspension was prepared and the cells were counted. Concentration of the cells was calculated. • b) The cell suspension was diluted to the required concentration and then added to the middle wells of a 96-well plate, and PBS was added to the edge wells. The wells with no cells and only culture medium were used as blank controls. • c) In addition to the cell plate used for compound analysis, another 96-well plate was prepared as a T0 plate, and 3-6 blank wells and 3-6 cell wells were added. The next day, CTG was used to test the cell viability as the T0 viability value of the cells. • d) The cell plate was incubated at 37 °C in a 5% CO2 incubator overnight. • e) The next day, each concentration of a compound subjected to a gradient dilution was added, and the cell plate was incubated at 37 °C in a 5% CO2 incubator for 72 h. The wells with no compound and only 0.5% DMSO were used as positive controls for cell growth. • f) CTG reagent (CellTiter-Glo kit) was added according to the manufacturer's instructions to test the cell viability value. • g) The plate was read using Biotek cytation3.0 microplate reader and the data were exported. • h) IC50 was calculated using GraphPad Prism 7.0 software.
(§3) The IC50 (half-maximal inhibitory concentration) of the compound was obtained using the following nonlinear fitting formula: Y = Bottom + (Top−Bottom)/(1+10^(∧)((LogIC50−X)*HillSlope)) [formula] • X: Log value of the compound concentration • Y: Inhibition rate (% inhibition) • Top: Maximum response • Bottom: Baseline response • HillSlope: Slope of the curve
(§4) The formula for calculating cell inhibition rate (inhibition rate %) was: [formula]

[2] = molecular target: T2, Ba/F3 BCR-ABL1 A424T (Homo sapiens, UniProt P00519+P11274, A424T); test: Cell growth inhibitory activity assay (CellTiter-Glo), Ba/F3 BCR-ABL1 A424T cells; details: 72 h, CTG cell viability
T2 construct: BCR (N-terminal fusion partner of the oncoprotein); expressed in transfected cells; host or cells: Ba/F3 (lentiviral transduction, monoclonal line)
Description: as §1, §2, §3, §4

[3] = system: Ba/F3 parental cells; test: Cell growth inhibitory activity assay (CellTiter-Glo), Ba/F3 parental cells; details: Mus musculus, BaF3, 72 h, CTG cell viability, read-out: IC50 Ba/F3 BCR-ABL1 Parental
Method in brief: (§5)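 IC50 values come from nonlinear fitting of % inhibition against log concentration, with viability taken as ATP content by CellTiter-Glo. Parental Ba/F3 or Ba/F3 monoclonal lines expressing lentivirally introduced mutant BCR-ABL1 were dosed for 72 h; controls included 0.5% DMSO wells and a T0 plate.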

[4] = molecular target: T3, Ba/F3 BCR-ABL1 P465S (Homo sapiens, UniProt P00519+P11274, P465S); test: Cell growth inhibitory activity assay (CellTiter-Glo), Ba/F3 BCR-ABL1 P465S cells; details: 72 h, CTG cell viability
T3 construct: BCR (N-terminal fusion partner of the oncoprotein); expressed in transfected cells; host or cells: Ba/F3 (lentiviral transduction, monoclonal line)
Description: as §1, §2, §3, §4

[5] = molecular target: T4, Ba/F3 BCR-ABL1 WT (Homo sapiens, UniProt P00519+P11274); test: Cell growth inhibitory activity assay (CellTiter-Glo), Ba/F3 BCR-ABL1 WT cells; details: 72 h, CTG cell viability
T4 construct: BCR (N-terminal fusion partner of the oncoprotein); expressed in transfected cells; host or cells: Ba/F3 (lentiviral transduction, monoclonal line)
Method in brief: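 Ba/F3 lines stably transduced by lentivirus with WT or mutant BCR-ABL1, alongside untransduced parental Ba/F3, were seeded and incubated overnight at 37 °C, 5% CO2, then exposed to serially diluted compound for 72 h. Viability was read as ATP by CellTiter-Glo luminescence against a day-of-dosing T0 plate; IC50 from four-parameter nonlinear fit.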

[6] = molecular target: T5, Ba/F3 BCR-ABL1 T315M (Homo sapiens, UniProt P00519+P11274, T315M); test: Cell growth inhibitory activity assay (CellTiter-Glo), Ba/F3 BCR-ABL1 T315M cells; details: 72 h, CTG cell viability
T5 construct: BCR (N-terminal fusion partner of the oncoprotein); expressed in transfected cells; host or cells: Ba/F3 (lentiviral transduction, monoclonal line)
Description: as §1, §2, §3, §4

[7] = system: K562 cells; test: Cell growth inhibitory activity assay (CellTiter-Glo), K562 cells; details: Homo sapiens, 72 h, CTG cell viability
Method in brief: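 K562 cells in logarithmic growth were counted, diluted and plated in 96-well plates, with medium-only blanks and a separate T0 plate read by CTG the following day. After overnight incubation, graded compound concentrations were added for 72 h, with 0.5% DMSO wells as growth controls. Luminescence was read on a Biotek cytation3.0, and IC50 came from nonlinear fitting in GraphPad Prism 7.0.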

[8] = molecular target: T6, Ba/F3 BCR-ABL1 I502L (Homo sapiens, UniProt P00519+P11274, I502L); test: Cell growth inhibitory activity assay (CellTiter-Glo), Ba/F3 BCR-ABL1 I502L cells; details: 72 h, CTG cell viability
T6 construct: BCR (N-terminal fusion partner of the oncoprotein); expressed in transfected cells; host or cells: Ba/F3 (lentiviral transduction, monoclonal line)
Description: as §1, §2, §3, §4

[9] = molecular target: T7, Ba/F3 BCR-ABL1 A337V (Homo sapiens, UniProt P00519+P11274, A337V); test: Cell growth inhibitory activity assay (CellTiter-Glo), Ba/F3 BCR-ABL1 A337V cells; details: 72 h, CTG cell viability
T7 construct: BCR (N-terminal fusion partner of the oncoprotein); expressed in transfected cells; host or cells: Ba/F3 (lentiviral transduction, monoclonal line)
Description: as §1, §2, §3, §4

[10] = molecular target: T8, Ba/F3 BCR-ABL1 V468F (Homo sapiens, UniProt P00519+P11274, V468F); test: Cell growth inhibitory activity assay (CellTiter-Glo), Ba/F3 BCR-ABL1 V468F cells; details: 72 h, CTG cell viability
T8 construct: BCR (N-terminal fusion partner of the oncoprotein); expressed in transfected cells; host or cells: Ba/F3 (lentiviral transduction, monoclonal line)
Description: as §1, §2, §3, §4

[11] = molecular target: T9, Ba/F3 BCR-ABL1 T315I (Homo sapiens, UniProt P00519+P11274, T315I); test: Cell growth inhibitory activity assay (CellTiter-Glo), Ba/F3 BCR-ABL1 T315I cells; details: 72 h, CTG cell viability
T9 construct: BCR (N-terminal fusion partner of the oncoprotein); expressed in transfected cells; host or cells: Ba/F3 (lentiviral transduction, monoclonal line)
Method in brief: as §5

[12] = molecular target: T10, Ba/F3 BCR-ABL1 Y253H/E255K (Homo sapiens, UniProt P00519+P11274, E255K/Y253H); test: Cell growth inhibitory activity assay (CellTiter-Glo), Ba/F3 BCR-ABL1 Y253H/E255K cells; details: 72 h, CTG cell viability
T10 construct: BCR (N-terminal fusion partner of the oncoprotein); expressed in transfected cells; host or cells: Ba/F3 (lentiviral transduction, monoclonal line)
Description: as §1, §2, §3, §4

Compound | IC50 [1] [µM] | IC50 [2] [µM] | IC50 [3] [µM] | IC50 [4] [µM] | IC50 [5] [µM] | IC50 [6] [µM] | IC50 [7] [µM] | IC50 [8] [µM] | IC50 [9] [µM] | IC50 [10] [µM] | IC50 [11] [µM] | IC50 [12] [µM]
CCn1cc2c(n1)-c1cc(-c3cc(C(=O)Nc4ccc(OC(F)(F)Cl)cc4)cc4nc5n(c34)[C@H](C)COC5)cnc1C2 [T-18, (R)-N-(4-(chlorodifluoromethoxy)phenyl)-6-(2-ethyl-2,4-dihydropyrazolo[3',4':3,4]cyclopenta[1,2-b]pyridin-7-yl)-4-methyl-3,4-dihydro-1H-benzo[4,5]imidazo[2,1-c][1,4]oxazine-8-carboxamide] | ≤ 0.005 | 0.005 to 0.05 | > 1 | 0.005 to 0.05 | ≤ 0.005 | > 1 | ≤ 0.005 | 0.005 to 0.05 | 0.005 to 0.05 | 0.005 to 0.05 | ≤ 0.005 | ≤ 0.005
C[C@@H]1CCSc2nc3cc(C(=O)Nc4ccc(OC(F)(F)Cl)cc4)cc(-c4cnc5c(c4)C(=O)N(C)C5)c3n21 [T-20, (R)-N-(4-(chlorodifluoromethoxy)phenyl)-4-methyl-6-(6-methyl-5-oxo-6,7-dihydro-5H-pyrrolo[3,4-b]pyridin-3-yl)-3,4-dihydro-2H-benzo[4,5]imidazo[2,1-b][1,3]thiazine-8-carboxamide] | 0.005 to 0.05 | 0.05 to 1 | > 1 | 0.05 to 1 | ≤ 0.005 | > 1 | ≤ 0.005 | 0.005 to 0.05 | 0.05 to 1 | 0.05 to 1 | 0.005 to 0.05 | 0.05 to 1
C[C@@H]1COCc2nc3cc(C(=O)Nc4ccc(OC(F)(F)Cl)cc4)cc(-c4cnc5c(c4)C(=O)N(C4CC4)C5)c3n21 [T-25, (R)-N-(4-(chlorodifluoromethoxy)phenyl)-6-(6-cyclopropyl-5-oxo-6,7-dihydro-5H-pyrrolo[3,4-b]pyridin-3-yl)-4-methyl-3,4-dihydro-1H-benzo[4,5]imidazo[2,1-c][1,4]oxazine-8-carboxamide] | 0.005 to 0.05 | 0.005 to 0.05 | > 1 |  | ≤ 0.005 | > 1 | ≤ 0.005 |  |  |  | 0.005 to 0.05 | 0.005 to 0.05
C[C@@H]1COCc2nc3cc(C(=O)Nc4ccc(OC(F)(F)Cl)cc4)cc(-c4cnc5c(c4)-c4nn(-c6ncc(F)cn6)cc4C5)c3n21 [T-68, (R)-N-(4-(chlorodifluoromethoxy)phenyl)-6-(2-(5-fluoropyrimidin-2-yl)-2,4-dihydropyrazolo[3',4':3,4]cyclopenta[1,2-b]pyridin-7-yl)-4-methyl-3,4-dihydro-1H-benzo[4,5]imidazo[2,1-c][1,4]oxazine-8-carboxamide] |  | ≤ 0.005 | > 1 | 0.005 to 0.05 | ≤ 0.005 | ≤ 0.005 | ≤ 0.005 | ≤ 0.005 | 0.005 to 0.05 | 0.005 to 0.05 | ≤ 0.005 | 
C[C@@H]1COCc2nc3cc(C(=O)Nc4ccc(OC(F)(F)Cl)cc4)cc(-c4cnc5c(c4)-c4nc(N)sc4C5)c3n21 [T-114, (R)-6-(2-amino-4H-thiazolo[4',5':3,4]cyclopenta[1,2-b]pyridin-7-yl)-N-(4-(chlorodifluoromethoxy)phenyl)-4-methyl-3,4-dihydro-1H-benzo[4,5]imidazo[2,1-c][1,4]oxazine-8-carboxamide] | 0.05 to 1 |  | > 1 |  | ≤ 0.005 | > 1 | ≤ 0.005 |  |  |  | 0.005 to 0.05 | 0.005 to 0.05

From patent publication EP4768484A1, “HETEROCYCLIC FUSED RING COMPOUND, AND COMPOSITION AND USE THEREOF” (Shenzhen TargetRx, Inc., priority 2023, dated 2025)
